Experimental findings from doi:10.1101/2021.10.07.463234v2 (biorxiv, 2021) are described below.

Broadly, the %inhibition is how much of the control response was suppressed. One may read the inhibition as how much of the control response was suppressed.

Where a name gives a salt, the structure may show the parent alone.

The target in the first assay is SARS-CoV-2 Mac1 (Severe acute respiratory syndrome coronavirus 2, UniProt P0DTD1). Nature of the assay: biochemical. Conditions: 100 µM; inhibitor.
For the compound `COCCCOc1ccnc(C[S+]([O-])c2nc3ccccc3[nH]2)c1C` (stereo not drawn) [Rabeprazole], the “%inhibition” value is listed as 0.1163%. Still for that read-out and setting: the value for `N[C@@H](Cc1cc(I)c(Oc2cc(I)c(O)c(I)c2)c(I)c1)C(=O)O` [Levothyroxine sodium] was 4.124%. On the same count and under the same terms, in the case of `CN1c2ccccc2C(NCCCCCCC(=O)O)c2ccc(Cl)cc2S1(=O)=O` (stereo not drawn) [Tianeptine sodium] it was 0%. Same read-out and setting: in the case of `C[C@@H](O)[C@H]1C(=O)N2C(C(=O)O)=C(S[C@@H]3CN[C@H](CNS(N)(=O)=O)C3)[C@H](C)[C@H]12` [Doripenem] it was 1.128%. With `CNCC[C@H](Oc1cccc2ccccc12)c1cccs1` [Duloxetine HCl], the “%inhibition” value came to 0%.

With `Cc1nnc(C(=O)NC(C)(C)c2nc(C(=O)NCc3ccc(F)cc3)c(O)c(=O)n2C)o1` [Raltegravir potassium], the “%inhibition” value was 7.113%. Same read-out and setting: in the case of `CO/N=C(\C(=O)N[C@@H]1C(=O)N2C(C(=O)O)=C(CSc3nc(=O)c(O)nn3C)CS[C@H]12)c1csc(N)n1` [Ceftriaxone Sodium] it was 17.28%. For `Nc1ccc(S(=O)(=O)Nc2ncccn2)cc1` [Sodium sulfadiazine], the “%inhibition” value is recorded as 0%.

Still in this assay, the particulars now being: read-out: %inhibition.
In the case of `CC[C@H]1OC(=O)[C@H](C)[C@@H](O[C@H]2C[C@@](C)(OC)[C@@H](O)[C@H](C)O2)[C@H](C)[C@@H](O[C@@H]2O[C@H](C)C[C@H](N(C)C)[C@H]2O)[C@](C)(O)C[C@@H](C)[C@@H]2N[C@@H](COCCOC)O[C@H]([C@H]2C)[C@]1(C)O` [Dirithromycin], the inhibition at 100 µM is 28.8%. Still for that read-out and setting: the value for `CN1C(C)(C)CCCC1(C)C` [Pempidine] was 28.2%; that for `Nc1nc(=O)c2nc(CNc3ccc(C(=O)N[C@@H](CCC(=O)O)C(=O)O)cc3)cnc2[nH]1` [Folic acid] was 11.4%.

Consider `CN(C)c1nc(N(C)C)nc(N(C)C)n1` [Altretamine], for which the inhibition at 100 µM was determined as 19.5%. Same read-out and setting: in the case of `CC[C@H](C)C(=O)O[C@H]1C[C@H](O)C=C2C=C[C@H](C)[C@H](CC[C@@H](O)C[C@@H](O)CC(=O)O)[C@H]21` [Pravastatin sodium] it was 28.2%; in that of `O=C(O)COC(=O)Cc1ccccc1Nc1c(Cl)cccc1Cl` [Aceclofenac], 0%. The same measure, in the same setting: the value for `Nc1nc(=O)c2c([nH]1)NCC(CNc1ccc(C(=O)N[C@@H](CCC(=O)O)C(=O)O)cc1)N2C=O` (stereo partly drawn) [Calcium folinate] was 0%. Still for that read-out and setting: the value for `COc1ccc(C(=O)N2CCCC2=O)cc1` [Aniracetam] was 0%; that for `CCCCCCCCOc1ccccc1C(=O)Nc1ccc(C(=O)OCC[N+](C)(CC)CC)cc1` [Otilonium Bromide] was 11%.

As to `C=CC(=O)Nc1cccc(Oc2nc(Nc3ccc(N4CCN(C)CC4)cc3)nc3ccsc23)c1` [Olmutinib (HM61713, BI 1482694)], the inhibition at 100 µM came out at 22.3%. On the same count and under the same terms, in the case of `C=CCN1CCCC1CNC(=O)c1cc2nn[nH]c2cc1OC` (stereo not drawn) [Alizapride HCl] it was 0%.

Turning to `O=c1[nH]cc(F)c(=O)[nH]1` [Fluorouracil (5-Fluoracil, 5-FU)], the inhibition at 100 µM is 0%. For the compound `CC(C)OC(=O)CCC/C=C\C[C@@H]1[C@@H](CC[C@@H](O)CCc2ccccc2)[C@H](O)C[C@@H]1O` [Latanoprost], the inhibition at 100 µM was 23.8%.

As for `CC[C@H](C)C(=O)O[C@H]1CCC=C2C=C[C@H](C)[C@H](CC[C@@H]3C[C@@H](O)CC(=O)O3)[C@H]21` [Mevastatin], the inhibition at 100 µM was found to be 12.1%. The same measure, in the same setting: in the case of `NC(=O)c1cc(N2CC2)c([N+](=O)[O-])cc1[N+](=O)[O-]` [CB1954] it was 5.18%; in that of `C=C1/C(=C\C=C2/CCC[C@]3(C)[C@@H]([C@H](C)/C=C/[C@@H](O)C4CC4)CC[C@@H]23)C[C@@H](O)C[C@@H]1O` [Calcipotriene], 0%; in that of `CCCCOc1ccc(C(=O)CCN2CCCCC2)cc1` [Dyclonine HCl], 0%. Still for that read-out and setting: in the case of `C[C@H]1CN(C[C@H](Cc2ccccc2)C(=O)NCC(=O)O)CC[C@@]1(C)c1cccc(O)c1` [Alvimopan dihydrate] it was 12.8%; in that of `CC(C)c1cc2c(cc1S(=O)(=O)O)[C@@]1(C)CCC[C@@](C)(C(=O)O)[C@@H]1CC2` [Ecabet sodium], 10.4%.

In the case of `COC(=O)Nc1nc2cc(C(=O)c3ccccc3)ccc2[nH]1` [Mebendazole], the inhibition at 100 µM is 0%. Same read-out and setting: the value for `CCCCCCCCCCCCCCCC(=O)O[C@@H]1[C@@H](O)[C@@H](O)[C@@H]([C@H](NC(=O)[C@@H]2C[C@@H](CCC)CN2C)[C@H](C)Cl)O[C@@H]1SC` [Clindamycin palmitate HCl] was 22.9%; that for `CC(=O)OCC(=O)[C@@]12OC(C)(C)O[C@@H]1C[C@H]1[C@@H]3C[C@H](F)C4=CC(=O)C=C[C@]4(C)[C@@]3(F)[C@@H](O)C[C@@]12C` [Fluocinonide] was 24.1%; that for `O=C(O)O` [Sodium carbonate] was 0.406%.

`C[C@@H]1CCO[C@H]2Cn3cc(C(=O)NCc4ccc(F)cc4F)c(=O)c(O)c3C(=O)N12` [Dolutegravir (GSK1349572)]: the inhibition at 100 µM is 9.9%. Same read-out and setting: the value for `Clc1ccc2nsnc2c1NC1=NCCN1` [Tizanidine HCl] was 0%; that for `COc1cc(NC(C)CCCN)c2ncccc2c1` (stereo not drawn) [Primaquine Diphosphate] was 5.42%. Same read-out and setting: in the case of `Cc1c(-c2ccnn2C)cc(C(=O)NCc2ccc(S(C)(=O)=O)cn2)c(=O)n1-c1cccc(C(F)(F)F)c1` [Alvelestat (AZD9668)] it was 0%; in that of `N=C(N)N/N=C/c1c(Cl)cccc1Cl` [Guanabenz Acetate], 0%. For the compound `NCCc1ccc(O)c(O)c1` [Dopamine HCl], the inhibition at 100 µM is 39.1%. On the same count and under the same terms, the value for `Cc1cc(C2CCCCC2)n(O)c(=O)c1` [Ciclopirox] was 22.9%; that for `CC(C)OC(=O)OCOP(=O)(CO[C@H](C)Cn1cnc2c(N)ncnc21)OCOC(=O)OC(C)C` [Tenofovir Disoproxil Fumarate] was 0%; that for `NCC(=O)O` [Glycine] was 0%. Same read-out and setting: in the case of `COC(=O)c1ccccc1O` [Methyl salicylate] it was 7.14%. The same measure, in the same setting: the value for `C[C@H](Nc1ncnc2nc[nH]c12)c1cc2cccc(Cl)c2c(=O)n1-c1ccccc1` [Duvelisib (IPI-145, INK1197)] was 2.52%; that for `COc1cc(OC)c(C(=O)CCCN2CCCC2)c(OC)c1` [Buflomedil HCl] was 0%; that for `O=C(O)CCCc1ccccc1` [Sodium Phenylbutyrate] was 6.6%. In the case of `CC1=C(C(=O)OC(C)C)C(c2cccc([N+](=O)[O-])c2)C(C(=O)OC2CN(C(c3ccccc3)c3ccccc3)C2)=C(N)N1` (stereo not drawn) [Azelnidipine], the inhibition at 100 µM was determined as 12.9%. The same measure, in the same setting: in the case of `CC1(C)O[C@@H]2C[C@H]3[C@@H]4C[C@H](F)C5=CC(=O)C=C[C@]5(C)[C@@]4(F)[C@@H](O)C[C@]3(C)[C@]2(C(=O)CO)O1` [Fluocinolone Acetonide] it was 0%. As for `COc1cc(NS(C)(=O)=O)ccc1Nc1c2ccccc2nc2ccccc12` [Amsacrine hydrochloride], the inhibition at 100 µM stood at 27%. The same measure, in the same setting: the value for `C[C@@H](O[C@H]1OCCN(Cc2n[nH]c(=O)[nH]2)[C@H]1c1ccc(F)cc1)c1cc(C(F)(F)F)cc(C(F)(F)F)c1` [Aprepitant] was 10.1%; that for `CCC(C)(Oc1ccc(C2(c3ccc(OC(C)(CC)C(=O)O)cc3)CCCCC2)cc1)C(=O)O` (stereo not drawn) [Clinofibrate] was 0%. Take `N[C@H](Cc1ccccc1)C(=O)O` [D-Phenylalanine]: the inhibition at 100 µM was 4.94%.

Regarding `O=P1(NCCCl)OCCCN1CCCl` (stereo not drawn) [Ifosfamide], the inhibition at 100 µM came to 10.6%. The same measure, in the same setting: in the case of `CCCCNC(=O)NS(=O)(=O)c1ccc(C)cc1` [Tolbutamide] it was 0%; in that of `Nc1ncnc2c1ncn2[C@@H]1O[C@H](CO)[C@@H](O)[C@H]1O` [Adenosine], 0%; in that of `CCC(=O)NCC[C@@H]1CCc2ccc3c(c21)CCO3` [Ramelteon], 21%. On the same count and under the same terms, in the case of `CCCCCCc1ccc(O)cc1O` [Hexylresorcinol] it was 0%. On the same count and under the same terms, the value for `CN1CCN(c2c(F)cc3c(=O)c(C(=O)O)cn4c3c2OCN4C)CC1` [Marbofloxacin] was 18.3%; that for `CN1C(C(=O)Nc2ccccn2)=C(O)c2ccccc2S1(=O)=O` [Piroxicam] was 38%. For `C=C[C@@H]1C[C@]1(NC(=O)[C@@H]1C[C@@H](Oc2ncc(OC)c3ccc(Cl)cc23)CN1C(=O)[C@@H](NC(=O)OC(C)(C)C)C(C)(C)C)C(=O)NS(=O)(=O)C1CC1` [Asunaprevir], the inhibition at 100 µM turned out to be 0%. With `CC(=O)O[C@@]12CO[C@@H]1C[C@H](O)[C@@]1(C)C(=O)[C@H](O)C3=C(C)[C@@H](OC(=O)[C@H](O)[C@@H](NC(=O)OC(C)(C)C)c4ccccc4)C[C@@](O)([C@@H](OC(=O)c4ccccc4)[C@H]21)C3(C)C` [Docetaxel], the inhibition at 100 µM is 11.6%.

Consider `C#Cc1cccc(Nc2ncnc3cc(OC)c(OCCCCCCC(=O)NO)cc23)c1` [CUDC-101], for which the inhibition at 100 µM was 6.86%. Take `NC(=O)OCC(COC(N)=O)c1ccccc1` [Felbamate]: the inhibition at 100 µM is 22%. Still for that read-out and setting: the value for `C[C@H]1[C@H](OC(=O)CCC(=O)O)O[C@@H]2O[C@@]3(C)CC[C@H]4[C@H](C)CC[C@@H]1[C@@]24OO3` [Artesunate] was 0%. Consider `COC(=O)C1=C(C)NC(C)=C(C(=O)OC)C1c1ccccc1[N+](=O)[O-]` [Nifedipine], for which the inhibition at 100 µM worked out at 16%.

In the case of `CC[C@@]1(O)C(=O)OCc2c1cc1n(c2=O)Cc2cc3c(CN(C)C)c(O)ccc3nc2-1` [Topotecan HCl], the inhibition at 100 µM turned out to be 24.2%. In the case of `CCOC(=O)O[C@]1(C(=O)OCCl)CC[C@H]2[C@@H]3CCC4=CC(=O)C=C[C@]4(C)[C@H]3[C@@H](O)C[C@@]21C` [Loteprednol etabonate], the inhibition at 100 µM came to 0%.

On to `O=C(CCCCCCC(=O)Nc1ccccc1)NO` [Vorinostat (SAHA, MK0683)], for which the inhibition at 100 µM stood at 0%.
